{"source": "patent US20100286155A1", "about": "“ADRENOCORTICAL CARCINOMA TREATMENT” (OSI PHARMACEUTICALS, INC., priority 2009, published 2010)", "key": {"pAkt": {"tested_on": "pAkt", "experiment": "pAkt inhibition in H295R tumor cells, WB", "format": "cell-based, human", "conditions": "3 uM, 24 hours", "protocol": "(§1) Measurement of pIGF-1R and pIR was determined by RTK capture array (ARY001, R&D Systems), and measurement of pAkt was determined by WB."}, "[1]": {"tested_on": "adrenocortical carcinoma (ACC)", "experiment": "Phase I clinical trials of OSI-906 in ACC patients (RECIST, CT, FDG-PET)", "format": "in vivo, human", "protocol": "As of 14 Apr. 2009 in two phase I clinical trials, seven patients have been enrolled with ACC.\nPatient 1 is a ACC patient, previously treated with six cycles of etoposide, cisplatin, and doxorubicin and mitotane from Feb. 2008 to Jul. 2008. […] 1, 2008, 450 mg/day, escalating to 600 mg, on days 1-3 of each 14 day period. At 8 weeks of treatment, CT scan was reported as stable. […] The overall reduction in RECIST measurement of target lesions was 43%. Subsequent scans indicated incremental response, including a scan showing a partial response of 72% decrease by RECIST compared to baseline. […] ACC is typically thought to be an FDG-avid tumor.\nObjective Response Criteria (RECIST)\nComplete Response: Disappearance of all clinical and radiological evidence of tumor (both target and nontarget) including normalization of elevated tumor markers at baseline, if documented. The patient must be free of all tumor-related symptoms. Complete Response must be confirmed at a second tumor assessment not less than 28 days apart from the assessment at which CR was observed.\nPartial Response: At least a 30% decrease in the sum of Longest Diameter (LD) of target lesions taking as reference the baseline sum LD. Partial Response must be confirmed at a second tumor assessment not less than 28 days apart from the assessment at which PR was observed.\nStable Disease: Steady state of disease. Neither sufficient shrinkage to qualify for PR nor sufficient increase to qualify for progressive disease. Stable disease must be documented to be present at least 28 days from the start of the therapy. There may be no appearance of new lesions for this category.\nProgressive Disease: At least a 20% increase in the sum of LD of measured lesions taking as references the smallest sum LD recorded since the treatment started. Appearance of new lesions will also constitute progressive disease. In exceptional circumstances, unequivocal progression of nontarget lesions may be accepted as evidence of disease progression (DP).\nAll patients who have measurable disease according to RECIST, who received at least 2 treatment periods of therapy, and who have their disease re-evaluated will be evaluable for response. All sites of disease should be followed as either target or nontarget lesions, as categorized at baseline. All measurable lesions up to a maximum of 5 lesions per organ or 10 lesions in total, representative of all involved organs, should be identified as target lesions, while all other lesions (either additional measurable lesions or nonmeasurable lesions) should be classified as nontarget lesions. To ensure comparability, the baseline radiology/scans and subsequent radiology/scans to assess response should be performed using identical techniques (i.e., scans performed immediately following bolus contrast administration should be made with a standard volume of contrast, the identical contrast agent, and preferably the same scanner). The same method, radiological or physical, should be employed and assessed by the same individual on each occasion."}, "[2]": {"tested_on": "H295R ACC tumor cell line", "experiment": "H295R ACC tumor cell line OSI-906 sensitivity: proliferation (Cell Titer Glo) and apoptosis (Caspase Glo)", "format": "cell-based, human", "conditions": "varying concentrations; proliferation at 72 h, apoptosis at 48 h after dosing"}, "IGF-1R": {"target": "T1, IGF-1R (Homo sapiens, UniProt P08069)", "T1 construct": "endogenous in cells; host or cells: H295R ACC tumor cell line", "T1 sequence (P08069 31-1367)": "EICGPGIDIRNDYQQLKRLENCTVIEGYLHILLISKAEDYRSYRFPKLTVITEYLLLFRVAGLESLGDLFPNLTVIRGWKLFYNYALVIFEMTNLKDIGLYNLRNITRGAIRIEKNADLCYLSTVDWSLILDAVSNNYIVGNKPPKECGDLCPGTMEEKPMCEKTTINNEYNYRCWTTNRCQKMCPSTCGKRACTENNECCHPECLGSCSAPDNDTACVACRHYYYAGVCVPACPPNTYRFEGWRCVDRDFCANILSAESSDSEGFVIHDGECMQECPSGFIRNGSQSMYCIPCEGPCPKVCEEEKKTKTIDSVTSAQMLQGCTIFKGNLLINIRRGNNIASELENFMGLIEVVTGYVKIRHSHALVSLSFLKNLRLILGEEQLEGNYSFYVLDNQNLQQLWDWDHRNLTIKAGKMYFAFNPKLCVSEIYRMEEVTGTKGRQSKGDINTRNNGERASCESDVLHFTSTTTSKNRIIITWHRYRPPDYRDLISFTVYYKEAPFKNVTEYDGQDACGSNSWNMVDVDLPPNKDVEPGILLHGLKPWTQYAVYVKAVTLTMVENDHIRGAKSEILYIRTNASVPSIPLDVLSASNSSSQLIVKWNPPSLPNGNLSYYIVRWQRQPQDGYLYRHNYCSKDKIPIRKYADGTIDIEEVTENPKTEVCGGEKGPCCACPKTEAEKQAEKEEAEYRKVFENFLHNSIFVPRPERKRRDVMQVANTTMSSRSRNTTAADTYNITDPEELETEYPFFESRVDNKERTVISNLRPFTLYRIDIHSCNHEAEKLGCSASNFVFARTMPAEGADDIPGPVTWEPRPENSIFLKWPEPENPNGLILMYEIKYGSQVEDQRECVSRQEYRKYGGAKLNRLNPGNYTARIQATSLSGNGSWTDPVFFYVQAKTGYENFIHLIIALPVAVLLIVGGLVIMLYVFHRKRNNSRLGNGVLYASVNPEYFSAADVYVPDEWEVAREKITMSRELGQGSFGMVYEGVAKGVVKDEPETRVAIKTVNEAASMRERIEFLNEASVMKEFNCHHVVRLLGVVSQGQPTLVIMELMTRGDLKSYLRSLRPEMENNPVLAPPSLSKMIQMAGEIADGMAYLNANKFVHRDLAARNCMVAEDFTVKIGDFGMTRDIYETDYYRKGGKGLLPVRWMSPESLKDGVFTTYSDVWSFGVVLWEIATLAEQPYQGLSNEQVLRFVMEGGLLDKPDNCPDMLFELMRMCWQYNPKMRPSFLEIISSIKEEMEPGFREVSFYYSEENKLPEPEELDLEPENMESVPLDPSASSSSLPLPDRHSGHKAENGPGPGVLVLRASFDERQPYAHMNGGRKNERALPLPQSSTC", "experiment": "pIGF-1R inhibition in H295R tumor cells, RTK capture array", "format": "cell-based", "conditions": "3 uM, 24 hours", "protocol": "as §1"}, "[3]": {"conditions": "Patient 1, 450 mg/day escalating to 600 mg, days 1-3 of each 14 day period"}, "[4]": {"conditions": "seven ACC patients enrolled in two phase I trials, as of 14 Apr. 2009"}}}
{"smiles": "C[C@]1(O)C[C@@H](c2nc(-c3ccc4ccc(-c5ccccc5)nc4c3)c3c(N)nccn32)C1", "note": "[OSI-906, cis-3-[8-amino-1-(2-phenyl-quinolin-7-yl)-imidazo[1,5-a]pyrazin-3-yl]-1-methyl-cyclobutanol]", "values": [{"measurement": "inhibition of pAkt", "setting": "pAkt", "result": "inhibition of pAkt"}, {"measurement": "CT scan result at 8 weeks of treatment", "setting": "[1]; [3]", "result": "stable"}, {"measurement": "CT scan result at 16 weeks", "setting": "[1]; [3]", "result": "decrease in primary lesion as well as improvement in all pulmonary lesions"}, {"measurement": "18-FDG-PET scan tumor uptake of tracer", "setting": "[1]; Patient 1, 30 weeks into treatment, residual primary tumor and two remaining metastases", "result": "no tumor uptake of the tracer"}, {"measurement": "overall reduction in RECIST measurement of target lesions", "setting": "[1]; Patient 1, at 16 weeks", "result": 43, "unit": "%"}, {"measurement": "partial response, decrease by RECIST compared to baseline", "setting": "[1]; Patient 1, subsequent scan", "result": 72, "unit": "%"}, {"measurement": "drug-related toxicities", "setting": "[1]; Patient 1, up to 56 weeks", "result": "No drug-related toxicities have been observed"}, {"measurement": "patients with partial response", "setting": "[1]; [4]", "result": "One had partial response"}, {"measurement": "patients with stable disease", "setting": "[1]; [4]", "result": "two had stable disease for >6 months"}, {"measurement": "patients with symptomatic response", "setting": "[1]; [4]", "result": "one had a dramatic, short-lived sympitomatic response"}, {"measurement": "sensitivity of H295R ACC tumor cell line (proliferation and apoptosis)", "setting": "[2]", "result": "exhibits sensitivity to OSI-906"}, {"measurement": "inhibition of phosphorylation of IGF-1R (pIGF-1R)", "setting": "IGF-1R", "result": "inhibits phosphorylation of both receptors"}]}
